Laboratory results from patent US20220175764A1 (priority 2019, published 2022).
Entries after “also recorded” stand apart in the source; their conditions may differ.

How the values were obtained:
[1] = test system: DIAMOND™ mice; assay type: in vivo; conditions: 150 mg/kg oral gavage; arm terminated early
Experimental: 8 mice gavaged with Curcumin at a dose of 150 mg/kg.
8 mice dosed from week 8 (t=8) until week 20 (t=20) on the Western Diet Sugar Water with once (1×) daily oral gavage with curcumin 150 mg/kg.

[2] = test system: DIAMOND™ mice; assay: Leaky gut assay / Dextran Assay - gut permeability at week 12 and week 20 (Example 2); assay type: in vivo, mouse; conditions: for GP at week-12 compared to vehicle control (Arm-5): after 4 weeks of treatment; for GP at week-20 compared to vehicle control: after 12 weeks of treatment; for GP week-20 vs week-12: mice with data at both time points, paired t-test
Experimental: At 8 weeks on diet (t=8), mice were randomized into experimental groups based on the most recent body weight. […] Gut integrity/permeability was measured with the leaky gut assay on week 12 (one month on test article treatment) and on week 20 immediately prior to sacrifice. At each assay time point, between 0.2 ml and 0.4 ml of 4 kDa dextran solution (2 g/10 ml PBS solution, 0.2 g/mL) was orally gavaged to mice. After 4 hours, blood was collected from the tail vein and processed to serum. Dextran concentration in samples was measured by ELISA.
Gut integrity/permeability was measured with the leaky gut assay at two time points (12-week and 20-week) by competitive Dextran ELISA, 4 weeks after initial drug dosing with test article or vehicles, and immediately prior to sacrifice. Fresh fecal pellets were collected prior to each assay and placed into RNAlater and frozen (for possible future gut microbiome analysis).
• a. The leaky gut assay was performed at week 12 (one month on treatment) and immediately prior to sacrifice. • b. The procedure for the dextran was as follow: • i. 2 g of 4 kD dextran was weighed into a static free weigh dish. • ii. The dextran was mixed into a 10 ml of PBS solution. • iii. Between 0.2 ml and 0.4 ml of dextran solution was orally gavaged into mice. Each mouse staggered by 10 minutes to maintain blood dextran consistency during blood collection. • iv. 4 hours post gavage lidocaine applied to the tails of the mice in the order that they were gavaged. • v. The mice were lightly restrained in a mouse restraint device. • vi. After 5 minutes 70% alcohol was applied to a cotton swab and used to wipe off the lidocaine. • vii. Sterile scissors were used to perform a tail nick. • viii. 140 μl of whole blood was collected into a capillary tube. • ix. The capillary tubes were spun at 3,000 RPM for 8 minutes. • x. The capillary tubes were broken at the supernatant line and the serum was blown into an Eppendorf tube and snap frozen in liquid nitrogen.

[3] = test system: DIAMOND™ mice; assay: Liver weight at necropsy (Example 2); assay type: in vivo, mouse; conditions: week 20
Experimental: Body weight and liver weight at time of euthanasia were recorded. Any abnormal gross anatomy signs on the body or liver would have been noted. […] The liver was processed into sections.

[4] = test system: DIAMOND™ mice; assay: Liver histology scoring, H&E and Sirius Red (Example 2); assay type: in vivo, mouse
Experimental: Liver samples were fixed in 10% neutral buffered formalin for 36-48 hours depending on the size of the sample before being placed into 70% alcohol. The samples were then processed into FFPE blocks. The FFPE blocks were sectioned and three (3) slides were cut per block and submitted for H&E and Sirius Red staining, and subsequent histology analysis. The samples' identity was blinded at the time of shipment for unbiased scoring.
Slide evaluation and scoring include NAS component scoring (fibrosis, steatosis grade and percentage, inflammation, ballooning), NAS score, SAF activity score, Fibrosis NASH CRN Score, Perisinusoidal Fibrosis score, and NASH category score. A histopathology sub-report is to be prepared containing scores and representative photographic images from each group.

[5] = test system: DIAMOND™ mice; assay: Gut permeability by serum dextran competitive ELISA after 4 kDa dextran gavage, WDSW-fed DIAMOND mice (Example 1); assay type: in vivo, mouse; conditions: for Western Diet-induced GP (conclusion): Example 1 conclusion
Experimental: Pioglitazone was dosed at 30 mg/kg for the entire 12 weeks. Gut permeability (GP) was assessed twice at 12 weeks and 20 weeks by measuring dextran absorption into the bloodstream using a competitive enzyme-linked immunosorbent assay (ELISA) with 20 μL of serum collected by tail nick. Mice were gavaged with 4 kDa dextran at 600 mg/kg; the more permeable the gut, the more dextran is detected in serum. Results between dose groups were compared using Student's 2-tailed t-test, and pair-wise analysis was performed on serial measurements from week-12 to week-20 to assess drug impact on progression of GP over time. Serum and liver tissues were collected at necropsy, formalin-fixed, paraffin-embedded (FFPE) slides stained with H&E and Sirius Red, and liver pathology was assessed.

[6] = test system: DIAMOND™ mice; assay: Serum lipid profile, Alere Cholestech LDX (Example 2); assay type: in vivo, mouse; conditions: serum at necropsy
Experimental: (§1) Lipid (total cholesterol, LDL, HDL, triglycerides, HDL calc.) and hepatic (ALB, AST, ALT, Alk, Phos, BUN, GGT, T Bil) panels were performed as described below. Due to natural variations in mice physiology extra serum might not be available to repeat testing.
40-50 microliters of thawed serum were placed into the sample well of an AL-10-991 test cassette, then the test cassette placed into the Alere Cholestech LDX blood lipid analyzer. The Alere Cholestech is FDA approved and CLIA waived for human use at POC and is used by numerous drug companies and CROs in preclinical studies because it only requires a small amount of blood. It may be used with whole blood, serum or plasma for humans, but mouse blood clots much faster and so whole blood in our experience has a higher failure rate. We therefore used serum.
Readouts were: • 1. Total cholesterol (T-chol) • 2. Triglycerides (TRIGS) (45 lower LOD) • 3. Glucose (standard range) • 4. HDL (100 upper LOD) • 5. LDL (calculated T-Chol—HDL)

[7] = test system: DIAMOND™ mice; assay: Serum LFT / hepatic panel, Abaxis VS2 (Example 2); assay type: in vivo, mouse; conditions: serum at necropsy
Experimental: as §1
Abaxis VS2 blood chemistry analyzers were used for measuring LFTs. This instrument is FDA approved for veterinary use, CLIA waived, and self-calibrating. It is the equivalent instrument to the Abaxis Piccolo instrument for human diagnostic testing. Phenobarbital test rotors (catalog #500-0049) were used which measure AST, ALT, ALP, GGT, ALB, and Total Bilirubin. The reactions are colorimetric, read automatically by the VS2 instrument, and results printed on a sticker which is attached to the necropsy specimen sheet and then entered into Excel. A minimum of 100 microliters of sample is needed for this test rotor, which may be either undiluted serum or diluted serum, in a ratio of 1:1 50 microliters of serum: 50 microliters of PBS without affecting accuracy of measurement of analytes. Significant hemolysis may render samples un-readable.

[8] = test system: DIAMOND™ mice; assay: Blood glucose and ketones from tail nick (Example 2); assay type: in vivo, mouse; conditions: at necropsy
Experimental: Following completion of the dosing period on t=20, the mice were placed into a clean cage and fasted for six (6) hours prior to euthanasia. Animals were euthanized by exposing them to carbon dioxide as an anesthetic followed by cardiac puncture for exsanguination. Cervical dislocation was performed as a secondary means of euthanasia. A volume of 3-5 μl of whole blood were collected from a tail nick premortem and used for glucose and ketone testing. A second volume of 300-500 μl of blood collected at euthanasia were processed to serum, aliquoted into small vials and flash frozen in liquid nitrogen for further tests including liver function and lipid tests as per study protocol. Remaining serum was stored frozen for further possible testing.
• a. Immediately prior to euthanasia a tail nick was performed. Whole blood was used to measure ketones and glucose. • b. Euthanasia—The mice were placed into a clean cage and fasted for 6 hours prior to euthanasia. Blood collection took place during euthanasia via cardiac puncture. The blood was collected into micro-serum separator tubes and processed to serum by centrifugation under 4 degrees Celsius for 15 minutes at 5,000 RMP, aliquoted in 100 μl aliquots, and serum flash frozen. Serum samples were stored frozen at −80° C. until use. […]

[9] = test system: Staphylococcus, Streptococcus, Enterococcus, and Enterobacteriaceae; conditions: species of Staphylococcus; cited from earlier work
[10] = Results Analysis 2, Week 12, after 4 weeks of treatment
[11] = Results Analysis 2, Week 20, after 12 weeks of treatment
[12] = Results Analysis 1, pair-wise analysis
[13] = end of study, listed as Vitamin-E

Structure (SMILES) | GP at week-12 compared to vehicle control (Arm-5) [2] | GP at week-20 compared to vehicle control [2] | GP week-20 vs week-12 [2] | liver weight vs Vehicle Control (Arm-5) [3] | prevalence of NASH (disease category) ([4]; end of study) [%] | Western Diet-induced GP (conclusion) [5] | mean serum dextran concentration [5, 10] [µg/mL] | fold reduction in mean serum dextran concentration compared with vehicle ([5]; Results Analysis 2, Week 20) [fold] | serum dextran concentration (significance) ([5]; Results Analysis 2, Week 20) | mean serum dextran concentration [5, 11] [µg/mL] | triglycerides vs vehicle control (Arm-5) [6] | BUN vs Vehicle control groups (Arm-5 and Arm-10) [7] | Ketones blood level vs vehicle control (Arm-5) [8] | other results
COc1cc(/C=C/C(=O)CC(=O)/C=C/c2ccc(O)c(OC)c2)ccc1O [Curcumin] | – | – | – | – | – | – | – | – | – | – | – | – | – | mortality [1]: excess mortality
C[N@+]1(CC2CC2)CC[C@]23c4c5ccc(O)c4O[C@H]2C(=O)CC[C@@]3(O)[C@H]1C5.[Br-] [MNTX, (R)-N-(cyclopropylmethyl) noroxymorphone methobromide] | significantly lower GP | persists at week-20; also recorded: significantly lower GP | maintained | significantly lower liver weight | 38 | dramatically improved | 91 | 2.9 | significant reduction | 74.7 | no significant effect | – | – | fold reduction of serum dextran compared to the VC group ([5]; Results Analysis 1, 12 week timepoint): 2.7 fold; serum dextran concentration ([5]; Results Analysis 1, 12 week timepoint, 4 weeks of treatment): 90.9 µg/mL; average serum dextran concentration, fold lower than the VC group ([5]; Results Analysis 1, 20 week timepoint, 12 weeks of treatment): 2 fold; fold reduction in mean serum dextran concentration compared with vehicle ([5]; Results Analysis 2, Week 12): 1.8 fold; serum dextran concentration relative to vehicle (significance) ([5]; Results Analysis 2, Week 12): significant reduction
CCc1ccc(CCOc2ccc(CC3SC(=O)NC3=O)cc2)nc1 (centres unmarked) [Pioglitazone] | – | – | – | – | – | – | 121 | 3.0 | – | 71.8 | – | significantly increased | – | steatosis-only (disease category) ([4]; end of treatment): 100%
CO[C@H]1/C=C/O[C@@]2(C)Oc3c(C)c(O)c4c(O)c(c5c(nc6cc(C)ccn65)c4c3C2=O)NC(=O)/C(C)=C\C=C\[C@H](C)[C@H](O)[C@@H](C)[C@@H](O)[C@@H](C)[C@H](OC(C)=O)[C@@H]1C [Rifaximin] | no changes | significantly lower GP | borderline significant | did not reduce liver weight | – | dramatically improved | 151 | – | significant reduction | 81.2 | no effect | significantly increased | slightly decreased; also recorded: decreased | Liver steatosis % vs control Arm-5 ([4]; end of study): increased; also recorded: slight increase in steatosis; serum dextran average at 20 weeks [5, 12]: 85.9 µg/mL; serum dextran, 12-week average [5, 12]: 154.0 µg/mL; improvement of leaky gut in the 8 weeks between first and second measurement ([5]; Results Analysis 1, week 12 to week 20): 45%; improvement in leaky gut during the 8 weeks between assessments ([5]; Results Analysis 2, pair-wise, Week 12 to Week 20): 46.2%; triglycerides vs vehicle control (Arm-5) ([6]; listed as Arm-3): no significant effect; in vitro antibacterial activity [9]: active
Cc1c(C)c2c(c(C)c1O)CC[C@@](C)(CCC[C@H](C)CCC[C@H](C)CCCC(C)C)O2 [Vitamin E, a-tocopherol] | no effect | no effect | Trending upward | lower | 38 | – | – | – | – | – | no effect | – | moved ketone levels up | GP week-20 vs week-12 ([2]; listed as Vit. E): trends toward an increase in GP; Lobular inflammation vs control Arm-5 ([4]; end of study): increase; NAFLD Activity Score (NAS) vs control Arm-5 ([4]; end of study): slight increase; Steatosis, Activity and Fibrosis (SAF) score vs control Arm-5 ([4]; end of study): slight increase; Lobular inflammation vs control Arm-5 [4, 13]: increased; NAFLD Activity Score (NAS) vs control Arm-5 [4, 13]: increased; Steatosis, Activity and Fibrosis (SAF) score vs control Arm-5 [4, 13]: increased; ALT vs control vehicles [7]: significantly increased; AST vs control vehicles [7]: significantly increased; Albumin vs vehicle control [7]: lower albumin; Albumin vs vehicle control ([7]; listed as Vitamin-E): decreased; triglycerides vs vehicle control (Arm-5) ([6]; listed as Arm-9): no significant effect
